Counter-ions that a name gives are not always drawn.
Tested on: RS4; 11 with G101V mutation
Assay: In vitro anti-proliferation assay (ATPlite luminescence) in BCL-2-dependent ALL cell line RS4;11 with G101V mutation
Assay type: cell-based
Details: cellular anti-proliferative IC50, about 72 hours, medium with 10% FBS, ATPlite; read-out: RS411-G101V IC50
Method: Cell antiproliferation was assayed by PerkinElmer ATPlite™ Luminescence Assay System. Briefly, the various test cancer cell lines were plated at a density of about 1×10^4 cells per well in Costar 96-well plates, and were incubated with different concentrations of compounds for about 72 hours in medium supplemented with 10% FBS. One lyophilized substrate solution vial was then reconstituted by adding 5 mL of substrate buffer solution, and was agitated gently until the solution was homogeneous. About 50 μL of mammalian cell lysis solution was added to 100 μL of cell suspension per well of a microplate, and the plate was shaken for about five minutes in an orbital shaker at ˜700 rpm. This procedure was used to lyse the cells and to stabilize the ATP. Next, 50 μL substrate solution was added to the wells and microplate was shaken for five minutes in an orbital shaker at ˜700 rpm. Finally, the luminescence was measured by a PerkinElmer TopCount® Microplate Scintillation Counter. Such assays, carried out with a range of doses of test compounds, allowed the determination of the cellular anti-antiproliferative IC50 of the compounds of the present invention.
The following table lists the IC50 values of another study for certain compounds of the invention.

Compared with “4-(2-((R)-2-(2-isopropoxyphenyl)-4-((S)-tetrahydro-2H-pyran-3-yl)piperazin-1-yl)-7-azaspiro[3.5]nonan-7-yl)-N-(((R)-5-nitro-3-(tetrahydro-2H-pyran-4-yl)-3,4-dihydro-2H-benzo[b][1,4]oxazin-7-yl)sulfonyl)-2-((5aS,9aR)-6,7,9,9a-tetrahydro-1H-pyrano[3,4-b]pyrrolo[3′,2′:5,6]pyrido[3,2-e][1,4]oxazin-5(5aH)-yl)benzamide [Example 208]”, `COc1ccc(CN2CCN(C3CC4(CCN(c5ccc(C(=O)NS(=O)(=O)c6ccc(NC[C@H]7CC[C@](C)(O)CC7)c([N+](=O)[O-])c6)c(N6c7cc8cc[nH]c8nc7O[C@H]7COCC[C@@H]76)c5)CC4)C3)[C@@H](c3ccccc3OC(C)C)C2)cc1` [Example 99, 2-[(3R,8S)-2,5-dioxa-9,15,17-triazatetracyclo[8.7.0.0^{3,8}.0^{12,16}]heptadeca-1(10),11,13,16-tetraen-9-yl]-4-{2-[(2S)-2-(2-isopropoxyphenyl)-4-[(4-methoxyphenyl)methyl]piperazin-1-yl]-7-azaspiro[3.5]nonan-7-yl}-N-[3-nitro-4-({[(1r,4r)-4-hydroxy-4-methylcyclohexyl]methyl}amino)benzenesulfonyl]benzamide] is 1.9-fold lower in IC50: 72.7 nM for the first, 38.5 nM for the second. The second is the more potent here.

`CC(C)Oc1ccccc1[C@H]1CN(Cc2ccc(N3CCOCC3)nc2)CCN1C1CC2(CCN(c3ccc(C(=O)NS(=O)(=O)c4ccc(NCC5CCC(C)(O)CC5)c([N+](=O)[O-])c4)c(N4c5cc6cc[nH]c6nc5O[C@H]5COCC[C@@H]54)c3)CC2)C1` (stereo partly drawn) [Example 100, 2-[(3R,8S)-2,5-dioxa-9,15,17-triazatetracyclo[8.7.0.0^{3,8}.0^{12,16}]heptadeca-1(10),11,13,16-tetraen-9-yl]-4-{2-[(2S)-2-(2-isopropoxyphenyl)-4-{[6-(morpholin-4-yl)pyridin-3-yl]methyl}piperazin-1-yl]-7-azaspiro[3.5]nonan-7-yl}-N-[3-nitro-4-({[(1r,4r)-4-hydroxy-4-methylcyclohexyl]methyl}amino)benzenesulfonyl]benzamide] and `COc1cc(CN2CCN(C3CC4(CCN(c5ccc(C(=O)NS(=O)(=O)c6ccc(NCC7CCC(C)(O)CC7)c([N+](=O)[O-])c6)c(N6c7cc8cc[nH]c8nc7O[C@H]7COCC[C@@H]76)c5)CC4)C3)[C@@H](c3ccccc3OC(C)C)C2)cnc1N1CCOCC1` (stereo partly drawn) [Example 101, N-((4-((((1r,4r)-4-hydroxy-4-methylcyclohexyl)methyl)amino)-3-nitrophenyl)sulfonyl)-4-(2-((S)-2-(2-isopropoxyphenyl)-4-((5-methoxy-6-morpholinopyridin-3-yl)methyl)piperazin-1-yl)-7-azaspiro[3.5]nonan-7-yl)-2-((5aS,9aR)-6,7,9,9a-tetrahydro-1H-pyrano[3,4-b]pyrrolo[3′,2′:5,6]pyrido[3,2-e][1,4]oxazin-5(5aH)-yl)benzamide] are within 1.5-fold of each other in IC50: 16.1 nM for the first, 12.9 nM for the second.

First: COc1ccc(CN2CCN(C3CC4(CCN(c5ccc(C(=O)NS(=O)(=O)c6ccc(NCC7CCC(C)(O)CC7)c([N+](=O)[O-])c6)c(N6c7cc8cc[nH]c8nc7O[C@H]7COCC[C@@H]76)c5)CC4)C3)[C@@H](c3ccccc3OC(C)C)C2)cn1 (stereo partly drawn) [Example 102, 2-[(3R,8S)-2,5-dioxa-9,15,17-triazatetracyclo[8.7.0.0^{3,8}.0^{12,16}]heptadeca-1(10),11,13,16-tetraen-9-yl]-4-{2-[(2S)-2-(2-isopropoxyphenyl)-4-[(6-methoxypyridin-3-yl)methyl]piperazin-1-yl]-7-azaspiro[3.5]nonan-7-yl}-N-[3-nitro-4-({[(1r,4r)-4-hydroxy-4-methylcyclohexyl]methyl}amino)benzenesulfonyl]benzamide]
Second: COc1ccc(CN2CCN(C3CC4(CCN(c5ccc(C(=O)NS(=O)(=O)c6ccc(NCC7CCC(C)(O)CC7)c([N+](=O)[O-])c6)c(N6c7cc8cc[nH]c8nc7O[C@H]7COCC[C@@H]76)c5)CC4)C3)[C@@H](c3ccccc3OC(C)C)C2)nc1 (stereo partly drawn) [Example 103, 2-[(3R,8S)-2,5-dioxa-9,15,17-triazatetracyclo[8.7.0.0^{3,8}.0^{12,16}]heptadeca-1(10),11,13,16-tetraen-9-yl]-4-{2-[(2S)-2-(2-isopropoxyphenyl)-4-[(5-methoxypyridin-2-yl)methyl]piperazin-1-yl]-7-azaspiro[3.5]nonan-7-yl}-N-[3-nitro-4-({[(1r,4r)-4-hydroxy-4-methylcyclohexyl]methyl}amino)benzenesulfonyl]benzamide]
The IC50 of the first is 2-fold lower: 18 nM for the first, 35.1 nM for the second. The first is the more potent here.

Compared with `COc1cc(CN2CCN(C3CC4(CCN(c5ccc(C(=O)NS(=O)(=O)c6ccc(NCC7CCC(C)(O)CC7)c([N+](=O)[O-])c6)c(N6c7cc8cc[nH]c8nc7O[C@H]7COCC[C@@H]76)c5)CC4)C3)[C@@H](c3ccccc3OC(C)C)C2)cnc1OC` (stereo partly drawn) [Example 104, 4-{2-[(2S)-4-[(5,6-dimethoxypyridin-3-yl)methyl]-2-(2-isopropoxyphenyl)piperazin-1-yl]-7-azaspiro[3.5]nonan-7-yl}-2-[(3R,8S)-2,5-dioxa-9,15,17-triazatetracyclo[8.7.0.0^{3,8}.0^{12,16}]heptadeca-1(10),11,13,16-tetraen-9-yl]-N-[3-nitro-4-({[(1r,4r)-4-hydroxy-4-methylcyclohexyl]methyl}amino)benzenesulfonyl]benzamide], `COc1ccc(CN2CCN(C3CC4(CCN(c5ccc(C(=O)NS(=O)(=O)c6ccc(NC[C@H]7CC[C@](C)(O)CC7)c([N+](=O)[O-])c6)c(N6c7cc8cc[nH]c8nc7O[C@H]7COCC[C@@H]76)c5)CC4)C3)[C@@H](c3ccccc3OC(C)C)C2)nc1OC` [Example 105, 4-{2-[(2S)-4-[(5,6-dimethoxypyridin-2-yl)methyl]-2-(2-isopropoxyphenyl)piperazin-1-yl]-7-azaspiro[3.5]nonan-7-yl}-2-[(3R,8S)-2,5-dioxa-9,15,17-triazatetracyclo[8.7.0.0^{3,8}.0^{12,16}]heptadeca-1(10),11,13,16-tetraen-9-yl]-N-[3-nitro-4-({[(1r,4r)-4-hydroxy-4-methylcyclohexyl]methyl}amino)benzenesulfonyl]benzamide] is 2.8-fold higher in IC50: 6.9 nM for the first, 19.3 nM for the second.

Compared with `COc1nc(CN2CCN(C3CC4(CCN(c5ccc(C(=O)NS(=O)(=O)c6ccc(NCC7CCC(C)(O)CC7)c([N+](=O)[O-])c6)c(N6c7cc8cc[nH]c8nc7O[C@H]7COCC[C@@H]76)c5)CC4)C3)[C@@H](c3ccccc3OC(C)C)C2)ccc1C` (stereo partly drawn) [Example 106, 2-[(3R,8S)-2,5-dioxa-9,15,17-triazatetracyclo[8.7.0.0^{3,8}.0^{12,16}]heptadeca-1(10),11,13,16-tetraen-9-yl]-4-{2-[(2S)-2-(2-isopropoxyphenyl)-4-[(6-methoxy-5-methylpyridin-2-yl)methyl]piperazin-1-yl]-7-azaspiro[3.5]nonan-7-yl}-N-[3-nitro-4-({[(1r,4r)-4-hydroxy-4-methylcyclohexyl]methyl}amino)benzenesulfonyl]benzamide], `CC(C)Oc1ccccc1[C@H]1CN(C2CCC(C)(O)CC2)CCN1C1CC2(CCN(c3ccc(C(=O)NS(=O)(=O)c4ccc(NCC5CCC(C)(O)CC5)c([N+](=O)[O-])c4)c(N4c5cc6cc[nH]c6nc5O[C@H]5COCC[C@@H]54)c3)CC2)C1` (stereo partly drawn) [Example 108, 2-[(3R,8S)-2,5-dioxa-9,15,17-triazatetracyclo[8.7.0.0^{3,8}.0^{12,16}]heptadeca-1(10),11,13,16-tetraen-9-yl]-4-{2-[(2S)-2-(2-isopropoxyphenyl)-4-[(1r,4r)-4-hydroxy-4-methylcyclohexyl]piperazin-1-yl]-7-azaspiro[3.5]nonan-7-yl}-N-[3-nitro-4-({[(1r,4r)-4-hydroxy-4-methylcyclohexyl]methyl}amino)benzenesulfonyl]benzamide] is 4.6-fold lower in IC50: 32.9 nM for the first, 7.2 nM for the second.

`CC(C)Oc1ccccc1[C@H]1CN(C2CCC(C)(O)CC2)CCN1C1CC2(CCN(c3ccc(C(=O)NS(=O)(=O)c4ccc(NCC5CCC(C)(O)CC5)c([N+](=O)[O-])c4)c(N4c5cc6cc[nH]c6nc5O[C@H]5COCC[C@@H]54)c3)CC2)C1` (stereo partly drawn) [Example 109, 2-[(3R,8S)-2,5-dioxa-9,15,17-triazatetracyclo[8.7.0.0^{3,8}.0^{12,16}]heptadeca-1(10),11,13,16-tetraen-9-yl]-4-{2-[(2S)-2-(2-isopropoxyphenyl)-4-[(1s,4s)-4-hydroxy-4-methylcyclohexyl]piperazin-1-yl]-7-azaspiro[3.5]nonan-7-yl}-N-[3-nitro-4-({[(1r,4r)-4-hydroxy-4-methylcyclohexyl]methyl}amino)benzenesulfonyl]benzamide] and `COc1nc(CN2CCN(C3CC4(CCN(c5ccc(C(=O)NS(=O)(=O)c6ccc(NCC7CCC(C)(O)CC7)c([N+](=O)[O-])c6)c(N6c7cc8cc[nH]c8nc7O[C@H]7COCC[C@@H]76)c5)CC4)C3)[C@@H](c3ccccc3OC(C)C)C2)cc2c1OCCC2(C)C` (stereo partly drawn) [Example 110, 2-[(3R,8S)-2,5-dioxa-9,15,17-triazatetracyclo[8.7.0.0^{3,8}.0^{12,16}]heptadeca-1(10),11,13,16-tetraen-9-yl]-4-{2-[(2S)-2-(2-isopropoxyphenyl)-4-({8-methoxy-4,4-dimethyl-2H,3H-pyrano[2,3-c]pyridin-6-yl}methyl)piperazin-1-yl]-7-azaspiro[3.5]nonan-7-yl}-N-[3-nitro-4-({[(1r,4r)-4-hydroxy-4-methylcyclohexyl]methyl}amino)benzenesulfonyl]benzamide hydrochloride] are within 1.5-fold of each other in IC50: 17.2 nM for the first, 23.8 nM for the second.

Reference: patent publication US20250114374A1, “BCL-2 INHIBITORS” (Newave Pharmaceutical Inc., priority 2021, published 2025)
